Source: patent US5409938A, “Antimalarial korupensamines and pharmaceutical compositions and medical uses thereof” (The United States of America as represented by the …, priority 1994, dated 1995)
In brackets after ≈: the same amount, converted by molar mass.

Columns and labels:
[1] = Bringmann, et al., DE 41 17 080; cited from earlier work
[2] = test system: Spodoptera littoralis; conditions: larvae of Spodoptera littoralis; Grimm 1992; Bringmann 1992; cited from earlier work
[3] = Ruangrungsi, et al., 1985; cited from earlier work
[4] = test system: Plasmodium falciparum; test: in vitro antimalarial activity, 3H-hypoxanthine incorporation, P. falciparum (strain NF 54/64, clone A1A9) in human erythrocytes; assay type: cell-based; conditions: averages of 6 repeat tests
Procedure: This example illustrates the antimalarial activity of the korupensamines of the present invention. […] Continuous in vitro cultures of asexual erythrocytic stages of P. falciparum (strain NF 54/64, clone A1A9) were maintained following essentially the method of Trager and Jensen (Science, 193, 673-675, 1976) at 37° C. under an atmosphere of 5% CO2, 5% O2, and 90% N2. The host cells were human erythrocytes (A or O Rh+). The culture medium was RPMI 1640 (Gibco), containing HEPES (BDH; 4.57 gL^-1) glucose (Sigma; 1.54 gL^-1), 5% NaHCO3 (Merck; 34.78 mlL^-1),and gentamycin (Merck; 8.70 mlL^-1) supplemented with 10% human plasma (A Rh+). Parasites were subinoculated every 3-4 days with initial conditions of 1% parasitemia and 1% hematocrit.
In vitro testing with P. falciparum was as follows. Each compound was dissolved in DMSO at a concentration of 20 mg ml^-1. These solutions were further diluted with physiological saline to obtain a stock solution of 500 μg ml^-1. […]
The test protocol was performed in vitro, based upon the method of Desjardins, et al. (Antimicrobial Agents Chemother., 16, 710-718, 1979). […] The filter papers were dried for 2 h at 52° C. and their radioactivity was measured by liquid scintillation counting in Optiscint HiSafe (LKB Pharmacia).
The mean results, obtained as counts per min (cpm), were expressed as percentages of incorporation or growth inhibition. […]

[5] = test system: Plasmodium berghei; test: in vitro antimalarial activity, 3H-hypoxanthine incorporation, P. berghei (Anka strain); assay type: cell-based; conditions: averages of 6 repeat tests
[6] = test system: P. berghei (Anka strain); test: in vivo antimalarial activity in P. berghei-infected OF1 mice, parasitemia from blood smears after 4 days
Procedure: Outbred, female, six-week-old OF1 mice (six mice per group treated and nontreated [control]) were inoculated intraperitoneally on day 0 with 10^6 P. berghei (Anka strain) blood forms. Two hours later, they were administered orally 50 mg/kg of korupensamine A. A second, third, and fourth treatment (50 mg/kg each) was given after 24, 48, and 72 h respectively (days 1, 2, and 3). […] The parasitemia (%) in the control (not drug treated) group was 2.45 (range 2.21-2.69; N=6) compared to 0.69 (range 0.48-0.91; N=6) for the treated group.

[7] = Sharma, et al., 1975; cited from earlier work

For `COc1cccc2c(-c3ccc4c(c3O)C(C)NC(C)C4)c(C)cc(OC)c12` (centres unmarked) [dioncophylline A], the activity as fungicides [1] is given as “active as fungicides” and the antifeedant effect [2] is given as “antifeedant effect against the larvae of Spodoptera littoralis”.

In the case of `COc1cc(C)cc2ccc(-c3ccc4c(c3O)[C@@H](C)N[C@H](C)C4)c(O)c12` [Dioncophylline B], the activity as fungicides [1] is given as “active as fungicides”.

In the case of `COc1cc2c(c(OC)c1-c1c(C)cc3cccc(OC)c3c1O)[C@@H](C)N(C)[C@@H](C)C2` [ancistrotectorine], the antitumor activity [3] is listed as “antitumor activity”.

In the case of `COc1cc(C)cc2c(-c3c(O)cc(O)c4c3C[C@@H](C)N[C@@H]4C)ccc(O)c12` [korupensamine A], the IC50 ([4]; Plasmodium falciparum, Erythrocyte, NP54/64, clone A1A9, read-out: IC50 P. faciparum) is reported as 0.307 µg/mL (≈ 0.809 µM), the IC50 ([5]; Plasmodium berghei) is reported as 0.555 µg/mL (≈ 1.46 µM) and the “parasitemia (%) in the treated group” value ([6]; 50 mg/kg orally x4 (2 h after inoculation, then 24, 48, 72 h), after 4 days, N=6, control 2.45 (range 2.21-2.69; N=6)) is reported as 0.69 (range 0.48-0.91; N=6) %. For the same compound, the “inhibition of the development of P. berghei erythrocytic forms” value ([6]; 50 mg/kg orally x4, blood smears after 4 days) was “marked inhibition of the development of P. berghei erythrocytic forms”.

In the case of `COc1cc(C)cc2c(-c3c(O)cc(O)c4c3C[C@@H](C)N[C@@H]4C)ccc(O)c12` [korupensamine B], the “IC50 P. faciparum” value ([4]; NP54/64, clone A1A9) is reported as 0.175 µg/mL (≈ 0.461 µM) and the “IC50 P. berghei” value [5] is reported as 0.490 µg/mL (≈ 1.29 µM).

For `COc1cc2c(c(OC)c1-c1c(C)cc3cccc(OC)c3c1O)C(C)=N[C@@H](C)C2` [ancistrocladidine], the spasmolytic activity [7] is listed as “pronounced spasmolytic activity”.
